# Data from patent US7754722B2, “Piperazine derivatives and methods of use” (Merck Serono SA, priority 2002, dated 2010).
# Molecular target: T1, FSH receptor (Homo sapiens, UniProt P23945)
# T1 construct: expressed in transfected cells; host or cells: CHO (Chinese Hamster Ovary) cells, stably transfected, carrying a cAMP response element-luciferase reporter
# T1 sequence (P23945 18-695): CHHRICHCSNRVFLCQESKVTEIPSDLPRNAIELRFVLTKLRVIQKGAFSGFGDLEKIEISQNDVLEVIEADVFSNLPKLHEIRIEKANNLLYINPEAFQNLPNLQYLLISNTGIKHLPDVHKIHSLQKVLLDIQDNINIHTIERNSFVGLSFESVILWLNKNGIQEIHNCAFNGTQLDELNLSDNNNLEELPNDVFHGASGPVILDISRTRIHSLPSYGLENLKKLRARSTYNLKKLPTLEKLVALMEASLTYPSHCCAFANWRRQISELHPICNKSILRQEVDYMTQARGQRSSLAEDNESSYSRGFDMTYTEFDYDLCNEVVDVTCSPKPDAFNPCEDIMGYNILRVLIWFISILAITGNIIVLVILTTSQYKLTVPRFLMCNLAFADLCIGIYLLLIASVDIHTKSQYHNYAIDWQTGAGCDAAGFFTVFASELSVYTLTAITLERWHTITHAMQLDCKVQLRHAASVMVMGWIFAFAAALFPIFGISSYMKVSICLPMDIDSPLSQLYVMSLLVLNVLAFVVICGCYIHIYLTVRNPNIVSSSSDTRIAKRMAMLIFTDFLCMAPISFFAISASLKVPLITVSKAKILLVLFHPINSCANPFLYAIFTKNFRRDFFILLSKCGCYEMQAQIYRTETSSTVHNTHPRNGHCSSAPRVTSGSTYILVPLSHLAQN
# Assay: FSH assay: cAMP response element luciferase reporter in CHO cells expressing recombinant FSH receptor
# Assay type: cell-based
# Conditions: agonist activity; CHO cells stably transfected with recombinant FSH receptor; luciferase luminescence; log-dose-response curves; incubation 37° C. for 3 hrs 30 min; read-out: ED50 (the source's name)
# Method: Compounds of the invention were tested in the following assay.
# All compounds of the invention were stored in 96-well deepwell plates in DMSO at a nominal concentration of 10 μM. Compounds of the invention were screened for agonist activity at the FSH receptor using the recombinant FSH receptor stably transfected and expressed in Chinese Hamster Ovary Cells (CHO cells) essentially as described in the work by Kelton, et al. Molecular and Cellular Endocrinology, 1992, 89, 141-151). […] Thus an agonist at the FSH receptor increases cAMP in the cell which results in activation of the CREB (cAMP) response element binding protein). The substrate for the enzyme (Packard Instrument Company 800 Research Parkway, Meriden, Conn. 06450, USA) was added to the cells after appropriate incubation with the compounds or FSH and the amount of luciferase expressed was measured by quantitating the luminescence produced by the enzyme using a TopCount scintillation/luminescence counter running in single photon counting mode. A compound which acts as an agonist at the receptor should produce light from the treated cells in proportion to its concentration within the incubation. Luminescence should be saturable at high concentrations of the compound.
# The compounds of the invention, in deepwell plates (Master plates) as indicated above were loaded on the robotic deck along with the appropriate number of assay plates and daughter plates. A 10 μl aliquot from each master plate was transferred to the corresponding daughter plate and 90 μl of DME/F12 was added and mixed within each well. 20 μl was then removed from the daughter plate and dispensed into the assay plate. After addition of an aliquot of FSH (equivalent to an EC100 response for this hormone to each of three wells on the plate, 80 μl of media (DME/F 12±2% serum) and 100 μl aliquot of cells (4×10^5/ml in the same media) were added and the plate incubated at 37° C. for 3 hrs 30 min. At this time the plate was removed from the incubator and media in each well was aspirated and the cells adhering to the bottom of the plate washed with 300 μl PBS containing 1 mM Ca^2+ and 1 mM Mg^2+. The PBS was aspirated and 100 μl PBS added to each well. 100 μl of Lucite (prepared as described by the manufacturer) was added to each well and the plate was shaken gently for 40 seconds prior to placement in the TopCount plate reader. After allowing 3.5 minutes for the plate to dark-adapt within the machine, the amount of luminescence generated was quantitated using Single Photon Counting mode. The data was transmitted electronically from the TopCount to the robot processing computer terminal and was renamed with an ID corresponding to the original master plate ID. […] LDR (log-dose-response) curves were generated for these compounds in CHO cells containing the FSH receptor and these curves were also compared with those in either cells expressing a different Gs linked receptor or in cells lacking any transfected receptor.
row,Structure (SMILES),EC50 [nM]
1,CCCCCCN1CCN(S(=O)(=O)c2cccs2)[C@H](C(=O)Nc2ccc3c(c2)nc(-c2cccnc2)n3CC)C1 [4-hexyl-1-(thiophene-2-sulfonyl)-piperazine-2-carboxylic acid (1-ethyl-2-pyridinyl-3-yl-1H-benzoimidazole-5-yl)-amide)],40
2,CCCCCCN1CCN(S(=O)(=O)c2cccs2)[C@H](C(=O)Nc2ccc3c(c2)c2ccccc2n3CC)C1 [4-hexyl-1-(thiophene-2-sulfonyl)-piperazine-2-carboxylic acid (9-ethyl-9H-carbazol-3-yl) amide],380
3,CCOC(=O)CN1CCN(S(=O)(=O)c2cccs2)[C@H](C(=O)Nc2ccc3c(c2)c2ccccc2n3CC)C1 [3-(9-ethyl-9H-carbazol-3-ylcarbamoyl)-4-(thiophene-2-sulfonyl)-piperazin-1-yl] acetic acid ethyl ester],610
4,"CCCCCNC(=O)N1CCN(S(=O)(=O)c2cccs2)[C@H](C(=O)Nc2cccc(-c3ccncc3)c2)C1 [4-(thiophene-2-sulfonyl)-piperazine-1,3-dicarboxyclic acid 1-pentylamide 3-[(3-pyridin-4-yl-phenyl)-amide]]",5000
5,CCn1c(-c2ccncc2)nc2cc(NC(=O)[C@@H]3CN(CCCSC)CCN3S(=O)(=O)c3cccs3)ccc21 [4-(3-methylsulfanyl-propyl)-1-(thiophene-2-sulfonyl)-piperazine-2-carboxylic acid (1-ethyl-2-pyridin-4-yl-1H-benzoimidazol-5-yl)amide],14000
6,CCCCCCN1CCN(S(=O)(=O)c2ccccc2F)[C@H](C(=O)Nc2ccc3c(c2)nc(-c2cccnc2)n3CC)C1 [1-(2-fluoro-benzenesulfonyl)-4-hexyl-piperazine-2-carboxylic acid (1-ethyl-2-pyridin-3-yl-1H-benzoimidazol-5-yl)amide],74
7,"CCn1c2ccccc2c2cc(NC(=O)[C@@H]3CN(C(=O)NCCCn4ccnc4)CCN3S(=O)(=O)c3cccs3)ccc21 [4-(thiophene-2-sulfonyl)-piperazine-1,3-dicarboxylic acid 3-[(9-ethyl-9H-carbazol-3-yl)-amide]1-[(3-imidazol-1-yl-propyl)-amide])]",6470
8,"CCNC(=O)N1CCN(S(=O)(=O)c2cccs2)[C@H](C(=O)Nc2ccc3c(c2)c2ccccc2n3CC)C1 [4-(thiophene-2-sulfonyl)-piperazine-1,3-dicarboxylic acid 1-ethylamide 3-[(9-ethyl-9H-carbazol-3-yl)amide]]",877
9,CCCCC(=O)N1CCN(S(=O)(=O)c2cccs2)[C@H](C(=O)Nc2ccc3c(c2)c2ccccc2n3CC)C1 [4-pentanoyl-1-(thiophene-2-sulfonyl)-piperazine-2-carboxylic acid (9-ethyl-9H-carbazol-3-yl) amide],402
10,CCCCCCN1CCN(S(=O)(=O)N(C)C)C(C(=O)Nc2ccc3c(c2)nc(-c2cccnc2)n3CC)C1 (centres unmarked) [1-dimethylsulfamoyl-4-hexyl-piperazine-2-carboxylic acid (1-ethyl-2-pyridin-3-yl-1H-benzoimidazol-5-yl) amide],242
11,"CCCCCNC(=O)N1CCN(S(=O)(=O)N(C)C)[C@H](C(=O)Nc2ccc3c(c2)c2ccccc2n3CC)C1 [4-dimethylsulfamoyl-piperazine-1,3-dicarboxylic acid 3-[(9-ethyl-9H-carbazol-3-yl)-amide]1-pentylamide]",403
12,"CCCCCCCN1CCN(S(=O)(=O)c2cccs2)C(C(=O)Nc2ccc3[nH]c4c(c3c2)CCNC4=O)C1 (stereo not drawn) [4-heptyl-1-(thiophene-2-sulfonyl)-piperazine-2-carboxylic acid (1-oxo-2,3,4,9-tetrahydro-1H-beta-carbolin-6-yl)amide]",1200
13,CCc1cocc1CN1CCN(S(=O)(=O)c2cccs2)[C@H](C(=O)Nc2ccc3c(c2)c2ccccc2n3CC)C1 [4-(4-ethyl-furan-3-ylmethyl)-1-(thiophene-2-sulfonyl)-piperazine-2-carboxylic acid (9-ethyl-9H-carbazol-3-yl)-amide],1600
14,CCCCCCCN1CCN(S(=O)(=O)c2cccs2)[C@H](C(=O)Nc2ccc3c(c2)nc(-c2ccncc2)n3CC)C1 [4-heptyl-1-(thiophene-2-sulfonyl)-piperazine-2-carboxylic acid (1-ethyl-2-pyridin-4-yl-1H-benzoimidazol-5-yl)amide],53
15,"CCCCCNC(=O)N1CCN(S(=O)(=O)c2cn(C)cn2)[C@H](C(=O)Nc2ccc3c(c2)c2ccccc2n3CC)C1 [4-(1-methyl-1H-imidazole-4-sulfonyl)-piperazine-1,3-dicarboxylic acid 3-[(9-ethyl-9H-carbazol-3-yl)-amide]1-pentylamide]",3160
16,"CCn1c2ccccc2c2cc(NC(=O)[C@@H]3CN(C(=O)NCCOC)CCN3S(=O)(=O)c3cccs3)ccc21 [4-(thiophene-2-sulfonyl)-piperazine-1,3-dicarboxylic acid 3-[(9-ethyl-9H-carbazol-3-yl)-amide]1-{(2-methoxy-ethyl)-amide]]",1610
17,CCn1c2ccccc2c2cc(NC(=O)[C@@H]3CN(CCCSC)CCN3S(=O)(=O)c3cccs3)ccc21 [4-(3-methylsulfanyl-propyl)-1-(thiophene-2-sulfonyl)-piperazine-2-carboxylic acid (9-ethyl-9H-carbazol-3-yl)-amide],1700
18,"CCn1c2ccccc2c2cc(NC(=O)[C@@H]3CN(C(=O)NCCc4c[nH]cn4)CCN3S(=O)(=O)c3cccs3)ccc21 [4-(thiophene-2-sulfonyl)-piperazine-1,3-dicarboxylic acid 3-[(9-ethyl-9H-carbazol-3-yl)-amide] 1-{[2-(1H-imidazol-4-yl)-ethyl]-amide}]",6250
19,CCCCCCCCN1CCN(S(=O)(=O)c2cccs2)[C@H](C(=O)Nc2ccc3c(c2)nc(-c2ccncc2)n3CC)C1 [4-octyl-1-(thiophene-2-sulfonyl)-piperazine-2-carboxylic acid (1-ethyl-2-pyridin-4-yl-1H-benzoimidazol-5-yl)amide],54
20,CCCCCCN1CCN(S(=O)(=O)c2cccs2)[C@H](C(=O)Nc2ccc3c(c2)nc(-c2ccncc2)n3CC)C1 [4-hexyl-1-(thiophene-2-sulfonyl)-piperazine-2-carboxylic acid (1-ethyl-2-pyridin-4-yl-1H-benzoimidazol-5-yl)amide],111
21,"CCCCCN1CCN(S(=O)(=O)c2cccs2)C(C(=O)Nc2ccc3[nH]c4c(c3c2)CCNC4=O)C1 (stereo not drawn) [4-pentyl-1-(thiophene-2-sulfonyl)-piperazine-2-carboxylic acid (1-oxo-2,3,4,9-tetrahydro-1H-beta-carbolin-6-yl)amide]",220
22,CCCCCCN1CCN(S(=O)(=O)CCCC)[C@H](C(=O)Nc2ccc3c(c2)nc(-c2cccnc2)n3CC)C1 [1-(butane-1-sulfonyl)-4-hexyl-piperazine-2-carboxylic acid (1-ethyl-2-pyridin-3-yl-1H-benzoimidazol-5-yl)amide],170
23,CCCCCCN1CCN(S(=O)(=O)c2ccc(F)cc2)[C@H](C(=O)Nc2ccc3c(c2)nc(-c2cccnc2)n3CC)C1 [1-(4-fluoro-benzenesulfonyl)-4-hexyl-piperazine-2-carboxylic acid (1-ethyl-2-pyridin-3-yl-1H-benzoimidazol-5-yl)amide],167
